Experimental findings from ChEMBL document CHEMBL1124973 (J Med Chem, 1990) are described below.

Data set [1] addresses T1, Muscarinic acetylcholine receptor (Rattus norvegicus) (UniProt P08482+P08483+P08485+P08911+P10980).
Description: In vitro binding affinity against muscarinic acetylcholine receptor from rat cortical homogenates using [3H]N-methylscopolamine as radioligand
Data set [2] has as its target T1, Muscarinic acetylcholine receptor (Rattus norvegicus). This is another data set of the same source.
Description: In vitro binding affinity against muscarinic acetylcholine receptor from rat cortical homogenates using [3H]oxotremorine-M radioligand
Data set [3] can be described thus: pKa value was measured. It counts as physicochemical.
Data set [4] addresses T1, Muscarinic acetylcholine receptor (Rattus norvegicus). Kind of data set: The selectivity ratio of Kapp of NMS/OXO -M. It is filed as protein assay.

Some results are limits rather than exact numbers.

In the case of `Cc1noc(C2CN3CCC2CC3)n1` (stereo not given), the values for the K app in data set [1] and in data set [2] were 0.44 µM and 0.00096 µM, respectively.

Consider `Cc1noc(C2CN3CCN2CC3)n1` (stereo not given), for which the K app in data set [1] was 36 µM; in data set [2], 0.44 µM. For the same compound, in data set [3], the pKa (as a rule, the pH at which an ionisable group is half protonated) came to 6.

Regarding `CN1CCN(C)C(c2nc(N)no2)C1` (stereo not given), the figures for the K app in data set [1] and in data set [2] were more than 50 µM and more than 14 µM, respectively. Moreover, the pKa in data set [3] stood at 6.

On to `Cc1noc(C2CC3CCC2NC3)n1` (stereo in doubt; 22b), for which the values for the K app in data set [1] and in data set [2] were 5.2 µM and 0.0025 µM, respectively.

With `Cc1noc(C[N+](C)(C)C)n1`, the K app amounted to 3.6 µM in data set [1] and 0.0014 µM in data set [2].

Turning to `Nc1noc(C2CN3CCN2CC3)n1` (stereo not given), the values for the K app in data set [1] and in data set [2] were more than 50 µM and 0.13 µM, respectively. Further, the pKa in data set [3] was determined as 6.3.

With `Nc1noc(C2CCNC2)n1` (stereo not given), the K app amounted to 21 µM in data set [1] and 0.04 µM in data set [2].

Turning to `Nc1noc(C2CN3CCC2C3)n1` (stereo in doubt; 16b), the K app in data set [1] amounted to 1.6 µM; in data set [2], 0.0015 µM.

With `Cc1noc(C2CCN(C)C2)n1` (stereo not given), the K app in data set [1] stood at 27 µM; in data set [2], 0.024 µM.

Regarding `Nc1noc(C2CN3CCCC2C3)n1` (stereo in doubt; 17b), the K app in data set [1] turned out to be 1.8 µM; in data set [2], 0.003 µM.

Take `Cc1noc(C2CC3CCC2NC3)n1` (stereo in doubt; 22a): the K app in data set [1] stood at 1.1 µM; in data set [2], 0.0032 µM.

With `Cc1noc(C2CNCCN2)n1` (stereo not given), the K app in data set [1] is more than 50 µM; in data set [2], 0.64 µM. In data set [3], this compound came in with a pKa of 7.1.

As for `Cc1noc(C2=CCCNC2)n1`, the K app in data set [1] turned out to be 2.4 µM; in data set [2], 0.0016 µM.

Consider `Nc1noc(C2CN3CCC2CC3)n1` (stereo not given), for which the figures for the K app in data set [1] and in data set [2] were 0.6 µM and 0.00047 µM, respectively.

Regarding `CN1CCC=C(c2nc(N)no2)C1`, the K app was 2.8 µM in data set [1] and 0.0026 µM in data set [2].

Turning to `Cc1noc(C2CN3CCC2C3)n1` (stereo in doubt; 15b), the K app in data set [1] came to 3.6 µM; in data set [2], 0.0021 µM.

`Cc1noc(C2CCCN(C)C2)n1` (stereo not given): the K app is 54 µM in data set [1] and 0.43 µM in data set [2].

On to `Nc1noc(C2CN3CCCC2C3)n1` (stereo in doubt; 17a), for which the K app in data set [1] was 0.77 µM; in data set [2] it was 0.00067 µM.

On to `CN1CCCC(c2nc(N)no2)C1` (stereo not given), for which the results for the K app in data set [1] and in data set [2] were 53 µM and 0.24 µM, respectively.

As for `Cc1noc(C2CCCCN(C)C2)n1` (stereo not given), the K app amounted to 18 µM in data set [1] and 0.73 µM in data set [2].

Take `Cc1noc(C2CC3CCC2N(C)C3)n1` (stereo in doubt; 23b): the K app was determined as 29 µM in data set [1] and 0.95 µM in data set [2].

Take `Cc1noc(C2CC3CCC2N(C)C3)n1` (stereo in doubt; 23a): the K app in data set [1] came to 8.9 µM; in data set [2], 0.3 µM.

`CN1CCNC(c2nc(N)no2)C1` (stereo not given): the Ratio in data set [4] was more than 5.5. In addition, the K app in data set [1] was more than 50 µM; in data set [2], 9.1 µM. Also, the pKa in data set [3] came out at 6.2.

On to `Nc1noc(C2CNCCN2)n1` (stereo not given), for which the Ratio in data set [4] is more than 100. Also, the K app in data set [1] is more than 50 µM; in data set [2] it was 0.45 µM. For the same compound, the pKa in data set [3] is 7.1.

In the case of `CN1CCC(c2nc(N)no2)C1` (stereo not given), the results for the K app in data set [1] and in data set [2] were 17 µM and 0.01 µM, respectively.

For `Cc1noc(C2=CCCN(C)C2)n1`, the K app in data set [1] is 2.1 µM; in data set [2], 0.0054 µM.

Turning to `Cc1noc(C2CN3CCC2C3)n1` (stereo in doubt; 15a), the K app in data set [1] is 0.1 µM; in data set [2], 9e-05 µM.

Turning to `Nc1noc(C2CN3CCC2C3)n1` (stereo in doubt; 16a), the K app in data set [1] was 0.031 µM; in data set [2] it was less than 4.3e-05 µM.

`Cc1noc(C2CN(C)CCN2)n1` (stereo not given): in data set [4], the Ratio was more than 6.6. The results for the K app in data set [1] and in data set [2] were more than 50 µM and 7.6 µM, respectively. This compound showed a pKa in data set [3] of 6.2.

In the case of `C[N+](C)(C)CCOC(N)=O`, the K app came to 22 µM in data set [1] and 0.0049 µM in data set [2].

Consider `Cc1noc(CN(C)C)n1`, for which the K app is more than 50 µM in data set [1] and 3.3 µM in data set [2]. This compound returned a pKa in data set [3] of 5.6.

Take `Nc1noc(C2=CCCNC2)n1`: the K app in data set [1] is 3.3 µM; in data set [2] it was 0.0017 µM.
